Laboratory results: ChEMBL document CHEMBL3885881, “DrugMatrix”

Species on record: Rattus norvegicus
Experiment: DrugMatrix - Regimen: Daily Repeat
Assay type: toxicity, organism-based, Sprague-Dawley
Design: regimen Daily Repeat, gender Male, age 6-8 weeks
Conditions: in vivo, po, 0 mg/kg, route oral GAVAGE, dose level Control, vehicle .5 % CMC; for ABSOLUTE BASOPHIL / ABSOLUTE EOSINOPHIL / ABSOLUTE LYMPHOCYTE / ABSOLUTE MONOCYTE / ABSOLUTE SEGMENTED NEUTROPHIL / BASOPHIL / EOSINOPHIL / ERYTHROCYTE COUNT / HEMATOCRIT / HEMOGLOBIN / LEUKOCYTE COUNT / LYMPHOCYTE / MEAN CORPUSCULAR HEMOGLOBIN / MEAN CORPUSCULAR HEMOGLOBIN CONCENTRATION / MEAN CORPUSCULAR VOLUME / MONOCYTE / NEUTROPHIL / NUCLEATED RED BLOOD CELLS / PLATELET COUNT: tissue Blood; for ALANINE AMINOTRANSFERASE / ALBUMIN / ALKALINE PHOSPHATASE / ASPARTATE AMINOTRANSFERASE / BLOOD UREA NITROGEN / CARBON DIOXIDE / CHLORIDE / CHOLESTEROL / CREATINE PHOSPHOKINASE / CREATININE / GLUCOSE / LACTATE DEHYDROGENASE / LIPASE / PHOSPHORUS / POTASSIUM / SODIUM / TOTAL BILIRUBIN / TOTAL PROTEIN / URIC ACID: tissue Plasma

SMILES: C[C@H]1O[C@@H](n2cc(F)c(=O)[nH]c2=O)[C@H](O)[C@@H]1O [DOXIFLURIDINE]
- ABSOLUTE BASOPHIL (72 h, time 3 day): 0 CELLS/uL
- ABSOLUTE EOSINOPHIL (72 h, time 3 day): 0 CELLS/uL
- ABSOLUTE LYMPHOCYTE (72 h, time 3 day): 12191.17 CELLS/uL
- ABSOLUTE MONOCYTE (72 h, time 3 day): 183.17 CELLS/uL
- ABSOLUTE SEGMENTED NEUTROPHIL (72 h, time 3 day): 1192.33 CELLS/uL
- BASOPHIL (72 h, time 3 day): 0%
- EOSINOPHIL (72 h, time 3 day): 0%
- ERYTHROCYTE COUNT (72 h, time 3 day): 5.51 x10E6/uL
- HEMATOCRIT (72 h, time 3 day): 35.45%
- HEMOGLOBIN (72 h, time 3 day): 13.82 G/DL
- LEUKOCYTE COUNT (72 h, time 3 day): 13.57 x10E3/uL
- LYMPHOCYTE (72 h, time 3 day): 89.83%
- MEAN CORPUSCULAR HEMOGLOBIN (72 h, time 3 day): 25.1 pg
- MEAN CORPUSCULAR HEMOGLOBIN CONCENTRATION (72 h, time 3 day): 38.98 G/DL
- MEAN CORPUSCULAR VOLUME (72 h, time 3 day): 64.42 fL
- MONOCYTE (72 h, time 3 day): 1.33%
- NEUTROPHIL (72 h, time 3 day): 8.83%
- NUCLEATED RED BLOOD CELLS (72 h, time 3 day): 0 /100WBC
- PLATELET COUNT (72 h, time 3 day): 1118.17 x10E3/uL
- ALANINE AMINOTRANSFERASE (72 h, time 3 day): 55 u/L
- ALBUMIN (72 h, time 3 day): 4.15 G/DL
- ALKALINE PHOSPHATASE (72 h, time 3 day): 449.5 u/L
- ASPARTATE AMINOTRANSFERASE (72 h, time 3 day): 112.83 u/L
- BLOOD UREA NITROGEN (72 h, time 3 day): 17.33 mg/dL
- CARBON DIOXIDE (72 h, time 3 day): 29.5 mmol/L
- CHLORIDE (72 h, time 3 day): 101 MEQ/L
- CHOLESTEROL (72 h, time 3 day): 70 mg/dL
- CREATINE PHOSPHOKINASE (72 h, time 3 day): 1325.83 u/L
- CREATININE (72 h, time 3 day): 0.18 mg/dL
- GLUCOSE (72 h, time 3 day): 171.5 mg/dL
- LACTATE DEHYDROGENASE (72 h, time 3 day): 386 u/L
- LIPASE (72 h, time 3 day): 10 u/L
- PHOSPHORUS (72 h, time 3 day): 11.57 mg/dL
- POTASSIUM (72 h, time 3 day): 6.21 MEQ/L
- SODIUM (72 h, time 3 day): 141.65 MEQ/L
- TOTAL BILIRUBIN (72 h, time 3 day): 0.15 mg/dL
- TOTAL PROTEIN (72 h, time 3 day): 5.75 G/DL
- URIC ACID (72 h, time 3 day): 1.28 mg/dL
- ABSOLUTE BASOPHIL (120 h, time 5 day): 0 CELLS/uL
- ABSOLUTE EOSINOPHIL (120 h, time 5 day): 138.17 CELLS/uL
- ABSOLUTE LYMPHOCYTE (120 h, time 5 day): 13283.17 CELLS/uL
- ABSOLUTE MONOCYTE (120 h, time 5 day): 303.83 CELLS/uL
- ABSOLUTE SEGMENTED NEUTROPHIL (120 h, time 5 day): 1308.17 CELLS/uL
- BASOPHIL (120 h, time 5 day): 0%
- EOSINOPHIL (120 h, time 5 day): 1%
- ERYTHROCYTE COUNT (120 h, time 5 day): 5.32 x10E6/uL
- HEMATOCRIT (120 h, time 5 day): 33.8%
- HEMOGLOBIN (120 h, time 5 day): 13.63 G/DL
- LEUKOCYTE COUNT (120 h, time 5 day): 15.03 x10E3/uL
- LYMPHOCYTE (120 h, time 5 day): 88.33%
- MEAN CORPUSCULAR HEMOGLOBIN (120 h, time 5 day): 25.68 pg
- MEAN CORPUSCULAR HEMOGLOBIN CONCENTRATION (120 h, time 5 day): 40.35 G/DL
- MEAN CORPUSCULAR VOLUME (120 h, time 5 day): 63.67 fL
- MONOCYTE (120 h, time 5 day): 1.83%
- NEUTROPHIL (120 h, time 5 day): 8.83%
- NUCLEATED RED BLOOD CELLS (120 h, time 5 day): 0 /100WBC
- PLATELET COUNT (120 h, time 5 day): 1097.5 x10E3/uL
- ALANINE AMINOTRANSFERASE (120 h, time 5 day): 54.5 u/L
- ALBUMIN (120 h, time 5 day): 4.27 G/DL
- ALKALINE PHOSPHATASE (120 h, time 5 day): 337 u/L
- ASPARTATE AMINOTRANSFERASE (120 h, time 5 day): 94.67 u/L
- BLOOD UREA NITROGEN (120 h, time 5 day): 17 mg/dL
- CARBON DIOXIDE (120 h, time 5 day): 28.33 mmol/L
- CHLORIDE (120 h, time 5 day): 101.5 MEQ/L
- CHOLESTEROL (120 h, time 5 day): 71.33 mg/dL
- CREATINE PHOSPHOKINASE (120 h, time 5 day): 628.17 u/L
- CREATININE (120 h, time 5 day): 0.19 mg/dL
- GLUCOSE (120 h, time 5 day): 177.83 mg/dL
- LACTATE DEHYDROGENASE (120 h, time 5 day): 500.5 u/L
- LIPASE (120 h, time 5 day): 9.5 u/L
- PHOSPHORUS (120 h, time 5 day): 12.3 mg/dL
- POTASSIUM (120 h, time 5 day): 5.63 MEQ/L
- SODIUM (120 h, time 5 day): 143.03 MEQ/L
- TOTAL BILIRUBIN (120 h, time 5 day): 0.2 mg/dL
- TOTAL PROTEIN (120 h, time 5 day): 6.02 G/DL
- URIC ACID (120 h, time 5 day): 1.5 mg/dL
